{
  "source": "paper PMC6934184",
  "about": "“Selective DNA-PKcs inhibition extends the therapeutic index of localized radiotherapy and chemotherapy” (The Journal of Clinical Investigation, 2019)",
  "target": "T1, ADRBK2 (GRK3) (Homo sapiens, UniProt P35626)",
  "T1 construct": "purchased Thermo Fisher Scientific (Life Technologies) SelectScreen",
  "T1 sequence (P35626 whole entry)": "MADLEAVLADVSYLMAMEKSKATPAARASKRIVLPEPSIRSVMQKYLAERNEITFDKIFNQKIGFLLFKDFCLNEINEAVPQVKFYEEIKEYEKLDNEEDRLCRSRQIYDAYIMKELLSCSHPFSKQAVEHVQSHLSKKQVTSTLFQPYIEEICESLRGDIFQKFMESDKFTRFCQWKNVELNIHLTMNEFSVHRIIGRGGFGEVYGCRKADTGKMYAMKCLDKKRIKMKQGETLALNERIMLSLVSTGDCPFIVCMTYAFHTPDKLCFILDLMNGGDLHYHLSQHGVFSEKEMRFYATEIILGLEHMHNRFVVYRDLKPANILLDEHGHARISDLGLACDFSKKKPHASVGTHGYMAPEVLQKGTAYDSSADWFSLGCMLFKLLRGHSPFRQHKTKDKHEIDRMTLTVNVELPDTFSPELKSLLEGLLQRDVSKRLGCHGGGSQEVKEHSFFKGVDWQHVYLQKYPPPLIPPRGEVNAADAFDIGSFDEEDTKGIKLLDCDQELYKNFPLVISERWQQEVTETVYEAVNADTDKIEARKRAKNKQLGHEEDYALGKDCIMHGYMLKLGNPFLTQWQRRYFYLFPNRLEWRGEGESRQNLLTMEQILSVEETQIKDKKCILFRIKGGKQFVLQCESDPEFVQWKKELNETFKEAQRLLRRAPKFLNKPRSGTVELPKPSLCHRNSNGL",
  "assay": "SelectScreen Z'LYTE",
  "assay_type": "biochemical",
  "method_in_brief": "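SelectScreen broad panel; activity (Z'LYTE, Adapta) plus binding formats. ATP: Km app for CSF1R Z'LYTE; 10 for CAMK1 Adapta. Readout = % per kinase.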",
  "data": [
    {"smiles": "CN(C(=O)CN1CCOCC1)c1ccc2sc3c(-c4cccc5c(=O)cc(N6CC7CCC(C6)O7)oc45)cccc3c2c1", "note": "[NU5455]", "values": [
      {"measurement": "inhibition at 1 µM", "value": 2.8, "unit": "%"}
    ]}
  ]
}
